Assay results as given in patent US6372756B1, “Epimorphian compound and its use” (AvMax, Inc., priority 1998, dated 2002).
Read-outs that look alike come from different tables or passages of the source.

Experiments:
[1] = Water solubility inferred from retention on lipophilic reversed-phase HPLC column; format: physicochemical; settings: evidenced by shorter retention time on lipophilic reversed-phase HPLC column
From the text: This characteristic of the novel compound results in a different oral bioavailability, pharmacokinetic profile, and organ distribution pattern than the known compound and also leads to ease in creating formulations for therapeutic use.
An HPLC system was also used for analysis of the sinomenine metabolism end products. For analytical HPLC, sinomenine and its metabolites were separated on a 250×4 mm LiChroCart column filled with endcapped Supersphere RP-18 material of 5 μm particle size and 100 Å pore width (Merck, Darmstadt, Germany).
The metabolite was prepared as described in Example 1. The samples were centrifuged (2000 g, 2 minutes) and 100 μl of the supernatant was injected into the analytical HPLC system. A control sample was prepared by the method described in Example 1 except that sinomenine and liver microsomes were incubated with an equal amount of phosphate buffer instead of with the NADPH generating solution. An HPLC run of the control sample was also made. The flow rate for the HPLC was set at 1 ml/min and the UV detection wavelength was 234 nm. The analytical column was kept at room temperature.
Sinomenine and its metabolites were isocratically eluted from the column with a mobile phase of 9.0/9.0/12.0/70.0 v/v/v/v methanol/acetonitrile/0.2 M sodium acetate/water, pH 5.5. The various fractions were quantified based on an external sinomenine calibration curve. […]

[2] = tested on: interleukin-2 (IL-2) synthesis in OKT3-stimulated PBMCs; assay: OKT3-stimulated human peripheral blood mononuclear cell assay, IL-2 secretion by ELISA; format: cell-based; settings: for IC50: OKT3 (1 μg/l) for 14 hours, curve fit, three independent experiments, read-out: IC50 of inhibition of IL-2 synthesis
Experimental: In an OKT3-stimulated human peripheral blood mononuclear cell assay, the relative biological activities of sinomenine and N-demethyl-sinomenine were tested.
The OKT3-stimulated human peripheral blood mononuclear cell assay was performed as described in Liu, L. et al., Inhibition of Lymphocyte Proliferation by the Anti-Arthritic Drug Sinomenine, Int. J. Immunopharmac., 16(8):685-691, (1994). Human Peripheral Blood Mononuclear Cells (PBMCS) were isolated from heparinized blood drawn from healthy adults. After separation from other blood components by density gradient centrifugation on Ficoll-hypaque (Biochrom, Berlin, Germany), the PBMCs were suspended in RPMI 1640 medium/10%FCS (RPMI 1640 medium with L-glutamine and nonessential amino acids: Gibco (Eggenstein, Germany); fetal calf serum (FCS): PAA Biologics (Marburg, Germany)).
The PBMCs (10^5 cells in a total volume of 150 μl per well) were activated by incubation with the monoclonal anti-T-cell receptor/CD3 complex antibody OKT3 (1 μg/l) for 14 hours. During this incubation, either sinomenine or N-demethyl-sinomenine was present in each of the main experimental wells at concentrations ranging from 10^−8 to 10^−3 M, as indicated on the x-axes of the graphs of FIGS. 10A and 10B. Control wells containing neither sinomenine nor its major metabolite were also prepared. The concentration of secreted IL-2 in the supernatants of activated PBMCs was determined using a commercial ELISA kit (Immunotech, Hamburg, Germany) following the manufacturer's instructions. In each of FIGS. 10A-B, the mean and standard error of three independent experiments are shown.
FIG. 10A presents the results for inhibition of IL-2 secretion by sinomenine. The concentration of IL-2 production, as a percentage of the control (100% equalled 1135 pg/ml, in this instance), was plotted against the molar concentration of sinomenine for each data point. The curves depicted were generated by a curve fit computer program (Microcal Origin Version 3.5). […]

[3] = In vivo sinomenine metabolism, mouse urine; set-up: species or system MRL-1 pr mice; settings: sinomenine 100 mg/kg intraperitoneally, urine collected over 24 hours
Experimental: (§1) More particularly, to study its metabolism in vivo, sinomenine was injected intraperitoneally into female Lewis rats at a concentration of 150 mg/kg body weight. Blood was taken after 30 minutes from the rat tail vein and plasma samples were prepared from the blood samples via standard techniques. In a parallel study, MRL-1 pr mice were injected intraperitoneally with either sinomenine at a concentration of 100 mg/kg body weight or physiological saline. Mouse urine was collected over a period of 24 hours.
(§2) The collected samples of rat blood and mouse urine from each of these studies were split so that testing could be performed immediately and after storage at −20° C. for one week. HPLC and GC/MS analysis was performed and there were no statistically significant differences in the results obtained from the immediately tested and the frozen samples.
(§3) A metabolite peak with the same relative retention time as the major metabolite isolated after incubation of sinomenine and NADPH generating solution with rat microsomes or human liver microsomes was obtained upon analysis of the rat blood and mouse urine samples. […] FIGS. 9A-B show HPLC chromatograms run on urine samples obtained from mice treated with saline (FIG. 9A) or with sinomenine (FIG. 9B). […]

human liver microsomes = assay: Incubation of sinomenine with human liver microsomes and NADPH generating system, HPLC/UV; format: in vitro ADME
Experimental: The livers of male Sprague Dawley rats, treated with dexamethasone for two days, and human liver specimens provided the sources for the starting material. Liver microsomes were prepared using standard centrifugation techniques as described by Guengerich (Guengerich, F. P., et al., Microsomal Enzymes Involved in Toxicology-Analysis and Separation, In: Principles and Methods in Toxicology (Ed. Hayes A W), pp. 609-637, Raven Press, New York, (1982)) with some modifications. Specifically, phosphate buffer was used instead of TRIS buffer and microsomes were stored at −80° C. The protein concentration was determined using a bicinchoninic acid assay (Redingbaugh, M. G., et al., Adaptation of the Bicinchoninic Acit Protein Assay for Use With Microtiter Plates and Sucrose Gradient Fractions, Anal. Biochem., 153:267-271, (1986)) and adjusted with 0.1 M potassium phosphate buffer, pH 7.4, to 3 g/l. […]
The presence of sinomenine and N-demethyl-sinomenine over time in the presence of microsomes and an NADPH generating solution were determined by HPLC and ultraviolet (UV) analysis. […]
For the HPLC analysis, a 250×4 mm analytical column was prepared with endcapped C18 material of 5 μm particle size. […] Sinomenine and its metabolites were detected with a UV wavelength of 234 nm. […]

[4] = In vivo sinomenine metabolism, rat plasma; set-up: species or system female Lewis rats; settings: sinomenine 150 mg/kg intraperitoneally, blood after 30 minutes
Experimental: as §1, §2, §3

[5] = in vivo; cited from earlier work
Lymphocyte proliferation = settings: in vitro; cited from earlier work

With COC1=C[C@H]2[C@H]3Cc4ccc(OC)c(O)c4[C@@]2(CCN3)CC1=O [N-demethyl-sinomenine] the “water solubility relative to sinomenine” value [1] was “greater water solubility”, the IC50 [2] was 20 µM and the “biological activity (IL-2 inhibition IC50) relative to sinomenine” value ([2]; same assay, relative to sinomenine) was “approximately five”. For the same compound, the “detection as metabolite in urine” value [3] was “detected as a metabolite”, the “share of all sinomenine metabolic products” value (human liver microsomes; believed to represent) was “approximately 90%” and the “detection as metabolite in plasma” value [4] was “detected as a metabolite”.

For COC1=C[C@@H]2[C@@H]3Cc4ccc(OC)c(O)c4[C@]2(CCN3C)CC1=O [sinomenine, reference compound], the side effects [5] is given as “minor side effects such as mild pain, cough, and diarrhea”, the IC50 ([2]; Homo sapiens, PBMC) is given as 100 µM and the “effect on lymphocyte proliferation” value (Lymphocyte proliferation) is given as “inhibited by sinomenine in a reversible manner without exhibiting direct cytotoxic effects”. The “amounts of sinomenine and its major metabolite” value (human liver microsomes; 120 minutes after the start of the reaction, human liver microsomes) was “approximately equal amounts”.
